In US4049660A, “N-substituted derivatives of 4 (N-piperazinylmethyl) spiro dibenzocycloheptadi- (or tri-) ene-5, 2-dioxolane (1,3) their method of preparation and their application in therapeutics” (Delalande S.A., priority 1971, dated 1977):
Read-outs that look alike come from different tables or passages of the source.

Columns and labels:
[1] = test system: cough caused by stimulation of the upper laryngeal nerve; test: Anti-cough: cough caused by stimulation of the upper laryngeal nerve in an anaesthetized cat; type: in vivo
[2] = test system: isolated duodenum of a rat (barium chloride); test: Spasmolytic: contraction by barium chloride of isolated duodenum of a rat; settings: for Spasmolytic activity: relative to papaverine as the standard
Procedure: Compounds of formula I, introduced in the survival medium, are capable of opposing the contacting action of barium chloride on the isolated duodenum of a rat. This activity is determined either by taking papaverine as the standard or by calculating the DE50 of the compound tested.

[3] = test system: painful stretchings following intraperitoneal injection of acetic acid; test: Analgesic: painful stretchings following intraperitoneal acetic acid in mouse; type: in vivo; settings: 100 mg/kg/PO, read-out: Percentage reduction in the number of painful stretchings
Text: The compounds of formula (I) administered orally to a mouse are capable of reducing the number of painful stretchings following the intraperitoneal injection of acetic acid.

[4] = test system: arterial pressure; test: Hypotensive: arterial pressure of anaesthetized rat; type: in vivo
Text: Administered intravenously to an anaesthetized rat, the compounds of formula (I) cause a lowering of arterial pressure.

[5] = test system: bronchoconstrictions provoked by serotonine; test: Antiserotonine: bronchoconstrictions provoked by intravenous serotonine in guinea pigs (Konzett and Rossler test); type: in vivo; settings: Cavia porcellus, serotonine bronchoconstriction, read-out: Test of Konzett and Rossler DE50
Text: (§1) For purposes of comparison, compounds of the formula (I) were compared, as to their antiserotonine properties, with a respresentative sampling of compounds disclosed in U.S. Pat. No. 3,726,900. The comparison compounds tested have the formula [drawing 23]

[6] = test system: isolated tied uterus (serotonine); test: Antiserotonine: contractions of the isolated tied uterus provoked by serotonine; settings: in vitro
Text: as §1

[7] = Acute toxicity / mortality, oral, mice; type: in vivo; settings: mouse, in vivo; for mortality: read-out: Percentage of mortality with mice; for LD50: oral
Text: As is shown by the preceding results and by those given in Table XIV below, the difference between pharmacologically active doses and lethal doses is sufficiently great to allow the use of compounds of formula (I) in therapeutics.

[8] = test system: ptosis caused by reserpine; test: Anti-depressive: antagonism against ptosis caused by intravenous reserpine; type: in vivo; settings: for ED50: po, read-out: Antagonism against ptosis caused by reserpine (DE50)
Procedure: (§2) In this regard, the compounds of formula I differ unexpectedly from the compounds of U.S. Pat. No. 3,726,900, as shown by comparative testing.
(§3) The anti-depressive properties of additional analog compounds were tested by the same tests. In these tests, the comparison compounds had the formula [drawing 28] The specific compounds tested and the test results are indicated in Table XIII.

[9] = test system: lethal effect of yohimbine; test: Anti-depressive: potentialization of lethal effect of yohimbine; type: in vivo
Procedure: as §2, §3

[10] = test system: ventricular fibrillations caused by inhaling chloroform; test: Antiarythmic: ventricular fibrillations caused by inhaling chloroform in mouse; type: in vivo; settings: ip, intraperitoneal, read-out: Antagonism to fibrillations caused by chloroform with a mouse, DE50
Text: Administered intraperitoneally, the compounds of formula (I) are able to protect the mouse against ventricular fibrillations caused by inhaling chloroform.

[11] = test system: isolated fundus of rats (serotonine); test: Antiserotonine: contractions of the isolated fundus of rats provoked by serotonine; settings: in vitro
Text: as §1

[12] = test system: isolated ileum of a guinea pig (histamine); test: Antihistamine: contraction by histamine of isolated ileum of a guinea pig
Procedure: The compounds of formula (I) introduced in the survival medium are able to oppose the contracting action of histamine on the isolated ileum of a guinea pig. This activity is calculated by the DE50 of the tested compounds.

[13] = test system: urinary elimination; test: Diuretic: volume of urine in mouse; type: in vivo; settings: 4 hours, versus controls, read-out: Percentage increase in urinary elimination
Procedure: The compounds of formula (I) administered orally to a mouse simultaneously with a volume of 1 ml of sodium chloride isotonic solute per 25 g of body weight are able to cause an increase of the volume of urine given compared with controls, this volume being measured for the 4 hours following administration.

[14] = mice, Table XI, read-out: LD50 (mice)
[15] = at 100 mg/kg/PO, result in words
[16] = at 50 mg/kg/PO, result in words

Structure (SMILES): CC(C)NC(=O)CN1CCN(CC2COC3(O2)c2ccccc2CCc2ccccc23)CC1 (stereo not drawn) [compound 70347]
- Reduction of cough, duration ([1]; 1 mg/kg/IV): 20 mm
- Reduction of cough, intensity ([1]; 1 mg/kg/IV): 80%
- Spasmolytic activity [2]: 1.5 × papaverine
- inhibition in vivo at 100 mg/kg [3]: 70%
- Reduction of arterial pressure, duration ([4]; 2 mg/kg/IV): > 30 mm
- Reduction of arterial pressure, intensity ([4]; 2 mg/kg/IV): 50%
- ED50 [5]: 0.5 mg/kg
- Antagonisms against contractions of tied uterus, DE50 [6]: 0.02 µg/mL
- mortality ([7]; 1200 mg/kg/PO): ~50%
- LD50 [7, 14]: 1200 mg/kg
- Antagonism against ptosis caused by reserpine ([8]; at 100 mg/kg/PO): Inactive
- Potentialization of lethal effect of yohimbine [9, 15]: Inactive

Structure (SMILES): CCC(C)NCC1COC2(O1)c1ccccc1CCc1ccccc12 (stereo not drawn) [R = C4 H9 (s) (--Z-- = --CH2 --CH2 --), reference compound]
- LD50 ([7]; Table XIII, read-out: LD50): 900 mg/kg
- ED50 ([8]; Table XIII): 45 mg/kg
- Potentialization of lethal effect of yohimbine ([9]; at 50 mg/kg/PO, Table XIII): ~40%

Structure (SMILES): CCCN(CCC)C(=O)CN1CCN(CC2COC3(O2)c2ccccc2C=Cc2ccccc23)CC1 (stereo not drawn) [compound 7204, -4'-[N'-(di-n-propylaminocarbonylmethyl) N-piperazinylmethyl] spiro [dibenzo(a,d)cycloheptatriene-5:2' dioxolane (1',3')] dimaleate]
- DE50 (spasmolytic) [2]: 2.50 µg/mL
- inhibition in vivo at 100 mg/kg [3]: 70%
- ED50 [10]: 100 mg/kg
- Antagonisms against contractions of fundus of rat, DE50 [11]: 0.07 µg/mL
- mortality ([7]; 1900 mg/kg/PO): ~50%
- LD50 [7, 14]: 1900 mg/kg

Structure (SMILES): CC(C)NCC1COC2(O1)c1ccccc1C=Cc1ccccc12 (stereo not drawn) [R = C3 H7 (i) (--Z-- = --CH = CH--), reference compound]
- LD50 ([7]; Table XIII, read-out: LD50): 550 mg/kg
- Antagonism against ptosis caused by reserpine ([8]; at 50 mg/kg/PO, Table XIII): 20%

Structure (SMILES): O=C(CN1CCN(CC2COC3(O2)c2ccccc2CCc2ccccc23)CC1)N1CCCC1 (stereo not drawn) [compound 70339]
- Reduction of cough, duration ([1]; 1 mg/kg/IV): 20 mm
- Reduction of cough, intensity ([1]; 1 mg/kg/IV): 100%
- Spasmolytic activity [2]: 1 × papaverine
- inhibition in vivo at 100 mg/kg [3]: 75%
- Reduction of arterial pressure, duration ([4]; 1 mg/kg/IV): > 30 mm
- Reduction of arterial pressure, intensity ([4]; 1 mg/kg/IV): 80%
- ED50 [5]: 0.1 mg/kg
- Antagonisms against contractions of tied uterus, DE50 [6]: 0.002 µg/mL
- Antagonisms against contractions of fundus of rat, DE50 [11]: 0.67 µg/mL
- mortality ([7]; 1200 mg/kg/PO): ~50%
- LD50 [7, 14]: 1200 mg/kg
- Antagonism against ptosis caused by reserpine ([8]; at 100 mg/kg/PO): Inactive
- Potentialization of lethal effect of yohimbine [9, 15]: Inactive

Structure (SMILES): C1=Cc2ccccc2C2(OCC(CN3CCCC3)O2)c2ccccc21 (stereo not drawn) [compound 70301, reference compound]
- ED50 [5]: 0.4 mg/kg
- LD50 [7, 14]: 425 mg/kg

Structure (SMILES): c1ccc(C(c2ccccc2)N2CCN(CC3COC4(O3)c3ccccc3CCc3ccccc34)CC2)cc1 (stereo not drawn) [compound 70374]
- Reduction of arterial pressure, duration ([4]; 2 mg/kg/IV): 20 mm
- Reduction of arterial pressure, intensity ([4]; 2 mg/kg/IV): 35%
- mortality ([7]; 2000 mg/kg/PO): 0%
- LD50 ([7]; Table XII, read-out: LD50): > 2000 mg/kg
- Antagonism against ptosis caused by reserpine ([8]; at 100 mg/kg/PO): Inactive
- Potentialization of lethal effect of yohimbine [9, 15]: Inactive

Structure (SMILES): O=C(CN1CCN(CC2COC3(O2)c2ccccc2CCc2ccccc23)CC1)N1CCOCC1 (stereo not drawn) [compound 70357]
- Reduction of cough, duration ([1]; 2 mg/kg/IV): 20 mm
- Reduction of cough, intensity ([1]; 2 mg/kg/IV): 100%
- Spasmolytic activity [2]: 1.5 × papaverine
- ED50 [5]: 0.005 mg/kg
- Antagonisms against contractions of tied uterus, DE50 [6]: 0.005 µg/mL
- Antagonisms against contractions of fundus of rat, DE50 [11]: 0.54 µg/mL
- mortality ([7]; 1300 mg/kg/PO): ~50%
- LD50 [7, 14]: 1300 mg/kg
- Antagonism against ptosis caused by reserpine ([8]; at 100 mg/kg/PO): Inactive
- Potentialization of lethal effect of yohimbine [9, 15]: Inactive

Structure (SMILES): CCOC(=O)CN1CCN(CC2COC3(O2)c2ccccc2CCc2ccccc23)CC1 (stereo not drawn) [compound 70365]
- Spasmolytic activity [2]: 3 × papaverine
- inhibition in vivo at 100 mg/kg [3]: 75%
- ED50 [5]: 0.6 mg/kg
- mortality ([7]; 1250 mg/kg/PO): ~50%
- LD50 [7, 14]: 1250 mg/kg
- Antagonism against ptosis caused by reserpine ([8]; at 100 mg/kg/PO): Inactive
- Potentialization of lethal effect of yohimbine [9, 15]: Inactive

Structure (SMILES): CCNCC1COC2(O1)c1ccccc1CCc1ccccc12 (stereo not drawn) [R = C2 H5 (--Z-- = --CH2 --CH2 --), reference compound]
- LD50 ([7]; Table XIII, read-out: LD50): 550 mg/kg
- ED50 ([8]; Table XIII): ~50 mg/kg

Structure (SMILES): CNC(=O)CN1CCN(CC2COC3(O2)c2ccccc2C=Cc2ccccc23)CC1 (stereo not drawn) [compound 72188]
- inhibition in vivo at 100 mg/kg [3]: 60%
- ED50 [10]: 38 mg/kg
- Antihistamine activity DE50 [12]: 1 µg/mL
- change in vivo at 25 mg/kg ([13]; 25 mg/kg/PO): 40%
- ED50 [5]: 0.25 mg/kg
- mortality ([7]; 1100 mg/kg/PO): ~50%
- LD50 [7, 14]: 1100 mg/kg
- Antagonism against ptosis caused by reserpine [8, 16]: Inactive

Structure (SMILES): CNCC1COC2(O1)c1ccccc1C=Cc1ccccc12 (stereo not drawn) [R = CH3 (--Z-- = --CH = CH--), reference compound]
- LD50 ([7]; Table XIII, read-out: LD50): 750 mg/kg
- ED50 ([8]; Table XIII): 25 mg/kg

Structure (SMILES): O=C(CN1CCN(CC2COC3(O2)c2ccccc2C=Cc2ccccc23)CC1)N1CCCCCC1 (stereo not drawn) [compound 72176]
- DE50 (spasmolytic) [2]: 3.50 µg/mL
- ED50 [10]: 100 mg/kg
- Antihistamine activity DE50 [12]: 0.5 µg/mL
- mortality ([7]; 3400 mg/kg/PO): ~50%

Structure (SMILES): CNCC1COC2(O1)c1ccccc1CCc1ccccc12 (stereo not drawn) [R = CH3 (--Z-- = --CH2 --CH2 --), reference compound]
- LD50 ([7]; Table XIII, read-out: LD50): 850 mg/kg
- ED50 ([8]; Table XIII): 60 mg/kg

Structure (SMILES): CC(C)NC(=O)CN1CCN(CC2COC3(O2)c2ccccc2C=Cc2ccccc23)CC1 (stereo not drawn) [compound 72134]
- ED50 [10]: 65 mg/kg
- Antihistamine activity DE50 [12]: 1 µg/mL
- change in vivo at 50 mg/kg ([13]; 50 mg/kg/PO): 55%
- mortality ([7]; 1200 mg/kg/PO): ~50%
- LD50 [7, 14]: 1200 mg/kg
- Antagonism against ptosis caused by reserpine [8, 16]: Inactive

Structure (SMILES): C1=Cc2ccccc2C2(OCC(CN3CCCCC3)O2)c2ccccc21 (stereo not drawn) [compound 70315, reference compound]
- ED50 [5]: 1.4 mg/kg
- LD50 [7, 14]: 700 mg/kg
- Antagonism against ptosis caused by reserpine ([8]; at 75 mg/kg/PO): 45%

Structure (SMILES): OCC(O)CN1CCN(CC2COC3(O2)c2ccccc2CCc2ccccc23)CC1 (stereo not drawn) [compound 70405, 4'-N'-(2",3"-dihydroxy "-propyl)N-piperazinyl methyl spiro dibenzo (a,d) cycloheptadiene-5:2' dioxolane (1',3') dimaleate]
- Reduction of cough, duration ([1]; 100 mg/kg/ID): 60 mm
- Reduction of cough, intensity ([1]; 100 mg/kg/ID): 100%
- Reduction of arterial pressure, duration ([4]; 2 mg/kg/IV): > 60 mm
- Reduction of arterial pressure, intensity ([4]; 2 mg/kg/IV): 40%
- mortality ([7]; 1600 mg/kg/PO): ~50%

Structure (SMILES): CCNCC1COC2(O1)c1ccccc1C=Cc1ccccc12 (stereo not drawn) [R = C2 H5 (--Z-- = --CH = CH--), reference compound]
- LD50 ([7]; Table XIII, read-out: LD50): 375 mg/kg
- ED50 ([8]; Table XIII): 70 mg/kg
- Potentialization of lethal effect of yohimbine ([9]; at 50 mg/kg/PO, Table XIII): 60%
